From patent publication US11220503B2, “Phthalazine derivatives, preparation method, pharmaceutical composition and usage thereof” (Shanghai SIMR Biotech Co., Ltd., priority 2015, dated 2022)

How the values were obtained:
α5β3γ2 receptor [1] = target: T1, α5β3γ2 receptor (Homo sapiens, UniProt P18507+P31644); assay: Supplementary data for cell level screening: new electrophysiology method (I. Lecker et al); type: cell-based; conditions: for Inverse agonism efficacy(%): new method, CsCl intracellular solution, GABA 0.1˜0.3 CM, other procedures as previous method; for inverse agonism efficacy of the compound/α5IA inverse agonism efficacy: ratio to the α5IA reference run above in the table (r4 or r29)
T1 construct: expressed in transfected cells; host or cells: HEK-293 (stably transfected)
Method: The inventors used electrophysiological methods to assay the inverse agonist efficacy of the substance to be tested. The detailed procedures are as follows: (1) Different subunits of GABAA receptors were expressed in human embryonic kidney cells 293 (HEK293). The cells were cultured in a culture medium and used as a cell model for screening potential analgesics. The α, β and γ subunits are necessary to form complete functional GABAA receptors. In this example, the inventor has established the following cell model: (a) α5 subunit (protein sequence is GenBank accession number: NP_001158509), β3 subunit (protein sequence is GenBank accession number: NP_068712) and γ2 subunit (protein sequence is GenBank accession number: NP_944494) were expressed in HEK-293 cell lines at the same time, which formed the complete functional GABAA receptors. (2) Cells were stably transfected HEK-293 cells expressing α5β3γ2 receptor, which were labeled by green fluorescent protein (GFP). Cells were grown in 10 cm dishes. The cells were passaged after reaching 80-90% confluence. During passaging, the culture medium was removed and discarded, 3 mL DMEM medium (Gibco™) was added to the dishes, the dishes were shaken slightly, and DMEM was removed and discarded. 3 mL Trypsin (Trypsin-EDTA 0.05%, Gibco™) was added and cells were digested at 37° C. for 3 minutes. Then 3 mL complete growth medium (DMEM+10% horse serum (Gibco™)) was added and the cells at the bottom of the culture dishes were dispersed. The cell suspension were transferred to a 15 mL centrifugal tube (Corning®) and then centrifuged at 200 g for 3 minutes. The supernatant was discarded, 4 mL complete growth medium was added, and the cells were resuspended by gently blowing. The cell suspension was diluted by 1:5 or 1:10 for subculturing. The cell suspension was diluted by 1:12 for electrophysiology experiment, which are added to the 24 well plate (Corning®) which has a glass slide pre-treated with poly-D-lysine. The cells were adhered to the slide before the experiment was conducted. The cells were maintained in culture for no more than 24 hours before use. (3) Compound concentration: for screening, all compounds were diluted to a final concentration of 100 nM. […] The compounds were at the concentration of 1 nM, 10 nM, 50 nM, 100 nM and 1000 nM in dose-inverse agonism efficacy (%) experiment. The whole cell patch clamp technique was used in electrophysiology experiments. The extracellular solution (ECS) contained: 150 mM NaCl, 5 mM KCl, 2.5 mM CaCl2, 1 mM MgCl2, 10 mM HEPES and 10 mM glucose (pH 7.4); […], 5 mM EGTA, 10 mM HEPES ([…] water). The currents were recorded by an EPC-10 amplifier and the PatchMaster software (HEKA). Patch electrodes with a resistance of 5-6 MΩ were pulled from borosilicate glass (Sutter). The diluted compounds were perfused by OCTAFLOWII system. GFP positive and independently growing cells were selected for recording. During recording, the membrane voltage was clamped at −60 mV. During experiment, the cells were firstly perfused with ECS for 20 seconds. When the baseline reached to a stable state, cells were then perfused with GABA solution. Then the current induced by GABA can be detected. After about 20-40 seconds, the current was stable. ECS was switched to compounds solution and the effects of the compounds were detected. At last, the perfusion solution was switched to ECS. The experiment was finished when the post-baseline returned to the pre-baseline before compounds perfusion. Only the data whose pre-baseline and post-baseline are at almost the same level were used for analysis. […] Then, compounds were diluted at the desired concentration in GABA ECS. (4) Currents were analyzed with the PatchMaster (HEKA) software. The GABA currents before (Ipre) and after (Ipost) compounds perfusion were recorded respectively. The efficacies of compounds were calculated by the following equation: inverse agonism efficacy=(Ipost-Ipre)*100/Ipre. N indicates experiment numbers. […]

α5β3γ2 receptor [2] = target: T1, α5β3γ2 receptor; assay: Cell level screening: whole cell patch clamp, inverse agonist efficacy; type: cell-based; conditions: for inhibition at 0.1 µM: HEK293, compound 100 nM, GABA 0.05-0.1 μM, HEK293 α5β3γ2, clamped at −60 mV, (Ipost-Ipre)*100/Ipre, read-out: inverse agonism efficacy(%); for inverse agonism efficacy of the compound/α5IA inverse agonism efficacy: ratio to α5IA, compound 100 nM
Method: The inventors used electrophysiological methods to assay the inverse agonist efficacy of the substance to be tested. The detailed procedures are as follows: (1) Different subunits of GABAA receptors were expressed in human embryonic kidney cells 293 (HEK293). The cells were cultured in a culture medium and used as a cell model for screening potential analgesics. The α, β and γ subunits are necessary to form complete functional GABAA receptors. In this example, the inventor has established the following cell model: (a) α5 subunit (protein sequence is GenBank accession number: NP_001158509), β3 subunit (protein sequence is GenBank accession number: NP_068712) and γ2 subunit (protein sequence is GenBank accession number: NP_944494) were expressed in HEK-293 cell lines at the same time, which formed the complete functional GABAA receptors. (2) Cells were stably transfected HEK-293 cells expressing α5β3γ2 receptor, which were labeled by green fluorescent protein (GFP). Cells were grown in 10 cm dishes. The cells were passaged after reaching 80-90% confluence. During passaging, the culture medium was removed and discarded, 3 mL DMEM medium (Gibco™) was added to the dishes, the dishes were shaken slightly, and DMEM was removed and discarded. 3 mL Trypsin (Trypsin-EDTA 0.05%, Gibco™) was added and cells were digested at 37° C. for 3 minutes. Then 3 mL complete growth medium (DMEM+10% horse serum (Gibco™)) was added and the cells at the bottom of the culture dishes were dispersed. The cell suspension were transferred to a 15 mL centrifugal tube (Corning®) and then centrifuged at 200 g for 3 minutes. The supernatant was discarded, 4 mL complete growth medium was added, and the cells were resuspended by gently blowing. The cell suspension was diluted by 1:5 or 1:10 for subculturing. The cell suspension was diluted by 1:12 for electrophysiology experiment, which are added to the 24 well plate (Corning®) which has a glass slide pre-treated with poly-D-lysine. The cells were adhered to the slide before the experiment was conducted. The cells were maintained in culture for no more than 24 hours before use. (3) Compound concentration: for screening, all compounds were diluted to a final concentration of 100 nM. GABA was diluted at the concentration of 0.05-0.1 μM. The compounds were at the concentration of 1 nM, 10 nM, 50 nM, 100 nM and 1000 nM in dose-inverse agonism efficacy (%) experiment. The whole cell patch clamp technique was used in electrophysiology experiments. The extracellular solution (ECS) contained: 150 mM NaCl, 5 mM KCl, 2.5 mM CaCl2, 1 mM MgCl2, 10 mM HEPES and 10 mM glucose (pH 7.4); Patch electrodes were filled with an intracellular solution containing: 140 mM KCl, 5 mM EGTA, 10 mM HEPES (adjusted to pH 7.4 with KOH and to 320-330 mOsm with water). The currents were recorded by an EPC-10 amplifier and the PatchMaster software (HEKA). Patch electrodes with a resistance of 5-6 MΩ were pulled from borosilicate glass (Sutter). The diluted compounds were perfused by OCTAFLOWII system. GFP positive and independently growing cells were selected for recording. During recording, the membrane voltage was clamped at −60 mV. During experiment, the cells were firstly perfused with ECS for 20 seconds. When the baseline reached to a stable state, cells were then perfused with GABA solution. Then the current induced by GABA can be detected. After about 20-40 seconds, the current was stable. ECS was switched to compounds solution and the effects of the compounds were detected. At last, the perfusion solution was switched to ECS. The experiment was finished when the post-baseline returned to the pre-baseline before compounds perfusion. Only the data whose pre-baseline and post-baseline are at almost the same level were used for analysis. GABA was diluted at the concentration of 0.05-0.1 μM in ECS. Then, compounds were diluted at the desired concentration in GABA ECS. (4) Currents were analyzed with the PatchMaster (HEKA) software. […]

T1 sequence (P31644 32-462): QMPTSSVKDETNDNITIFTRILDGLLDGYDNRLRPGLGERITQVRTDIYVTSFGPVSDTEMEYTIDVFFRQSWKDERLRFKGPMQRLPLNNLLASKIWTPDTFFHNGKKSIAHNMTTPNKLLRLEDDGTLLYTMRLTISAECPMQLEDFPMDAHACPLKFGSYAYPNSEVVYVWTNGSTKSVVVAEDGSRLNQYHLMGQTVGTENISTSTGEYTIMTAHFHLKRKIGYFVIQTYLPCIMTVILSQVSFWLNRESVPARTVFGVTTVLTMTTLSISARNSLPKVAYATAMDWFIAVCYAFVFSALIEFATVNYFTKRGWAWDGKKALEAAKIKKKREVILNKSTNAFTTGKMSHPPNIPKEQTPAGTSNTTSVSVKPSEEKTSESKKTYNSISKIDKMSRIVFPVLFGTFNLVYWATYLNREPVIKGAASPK
T1 sequence (P28472 26-473 isoform P28472-2 partner limits assumed): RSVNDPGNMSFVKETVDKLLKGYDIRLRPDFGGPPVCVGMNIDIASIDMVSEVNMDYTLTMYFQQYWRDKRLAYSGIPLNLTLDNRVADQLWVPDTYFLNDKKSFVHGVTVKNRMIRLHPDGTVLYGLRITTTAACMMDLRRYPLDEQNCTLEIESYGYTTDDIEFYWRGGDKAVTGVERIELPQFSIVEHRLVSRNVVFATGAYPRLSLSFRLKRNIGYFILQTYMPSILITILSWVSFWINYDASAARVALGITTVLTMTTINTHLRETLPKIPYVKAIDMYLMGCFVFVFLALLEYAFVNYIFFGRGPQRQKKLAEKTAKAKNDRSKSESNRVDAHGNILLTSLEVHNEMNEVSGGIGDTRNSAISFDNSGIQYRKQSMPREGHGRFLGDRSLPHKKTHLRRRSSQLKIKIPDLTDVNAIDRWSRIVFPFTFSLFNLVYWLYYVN
T1 sequence (P18507 40-475): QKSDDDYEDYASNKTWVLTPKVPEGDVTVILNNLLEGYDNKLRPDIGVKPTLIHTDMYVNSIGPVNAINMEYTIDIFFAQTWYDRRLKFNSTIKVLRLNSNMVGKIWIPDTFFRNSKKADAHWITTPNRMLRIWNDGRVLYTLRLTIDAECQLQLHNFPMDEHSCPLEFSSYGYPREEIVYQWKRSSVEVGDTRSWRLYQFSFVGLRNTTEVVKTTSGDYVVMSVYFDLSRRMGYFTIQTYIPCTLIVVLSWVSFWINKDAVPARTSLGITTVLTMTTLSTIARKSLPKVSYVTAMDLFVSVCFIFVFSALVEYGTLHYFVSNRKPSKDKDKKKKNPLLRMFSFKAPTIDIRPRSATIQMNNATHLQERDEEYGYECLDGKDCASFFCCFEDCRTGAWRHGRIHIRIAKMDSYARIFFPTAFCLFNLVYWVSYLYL

SMILES | Inverse agonism efficacy(%) (α5β3γ2 receptor [1]) | inverse agonism efficacy of the compound/α5IA inverse agonism efficacy (α5β3γ2 receptor [1]) | inhibition at 0.1 µM (α5β3γ2 receptor [2]) | inverse agonism efficacy of the compound/α5IA inverse agonism efficacy (α5β3γ2 receptor [2])
Cc1cc(-c2nnc3c4ccccc4c(OCc4cc(C(=O)N[C@H](C)CO)on4)nn23)no1 [Compound 58, (R)—N-(1-hydroxypropan-2-yl)-3-(((3-(5-methylisoxazol-3-yl)-[1,2,4]triazolo[3,4-a]phthalazin-6-yl)oxy)methyl)isoxazole-5-carboxamide] | −27% | 1.554 | 30% | 1.33
Cc1nc(-c2nnc3c4ccccc4c(OCc4ccc(C(=O)N[C@H](C)CO)cn4)nn23)no1 [Compound 57, (R)—N-(1-hydroxypropan-2-yl)-6-(((3-(5-methyl-1,2,4-oxadiazol-3-yl)-[1,2,4]triazolo[3,4-a]phthalazin-6-yl)oxy)methyl)nicotinamide] | −25% | 1.439 | 38.3% | 1.6973
O=C(NC1CCOC1)c1ccc(COc2nn3c(-c4cc(CO)on4)nnc3c3ccccc23)nc1 (centres unmarked) [Compound 47, 6-(((3-(5-(hydroxymethyl)isoxazol-3-yl)-[1,2,4]triazol[3,4-a]phthalazin-6-yl)oxy)methyl)-N-(tetrahydrofuran-3-yl)nicotinamide] | −26.875% | 1.547 | 51.5% | 2.284
Cc1cc(-c2nnc3c4ccccc4c(OCc4ccc(C(=O)N[C@H]5CCC[C@@H]5O)cn4)nn23)no1 [Compound 03, N-((1S,2S)-2-hydroxycyclopentyl)-6-(((3-(5-methylisoxazol-3-yl)-[1,2,4]triazolo[3,4-a]phthalazin-6-yl)oxy)methyl)nicotinamide] | −29.33% | 1.689 | 41.3% | 1.832
Cc1cc(-c2nnc3c4ccccc4c(OCc4ccc(C(=O)NCC(F)(F)F)cn4)nn23)no1 [Compound 30, 6-(((3-(5-methylisoxazol-3-yl)-[1,2,4]triazolo[3,4-a]phthalazin-6-yl)oxy)methyl)-N-(2,2,2-trifluoroethyl)nicotinamide] | −52% | 2.796 | – | –
O=C(NC1CC1)c1ccc(COc2nn3c(-c4cc(CO)on4)nnc3c3ccccc23)nc1 [Compound 36, N-cyclopropyl-6-(((3-(5-(hydroxymethyl)isoxazol-3-yl)-[1,2,4]triazolo[3,4-a]phthalazin-6-yl)oxy)methyl)nicotinamide] | −28.8% | 1.658 | – | –
N#Cc1cc(C(=O)N[C@H]2CCC[C@@H]2O)ccc1COc1nn2c(-c3cc(CO)on3)nnc2c2ccccc12 [Compound 56, 3-cyano-N-((1S,2S)-2-hydroxycyclopentyl)-4-(((3-(5-(hydroxymethyl)isoxazol-3-yl)-[1,2,4]triazolo[3,4-a]phthalazin-6-yl)oxy)methyl)benzamide] | −27.6% | 1.589 | – | –
Cc1cc(-c2nnc3c4ccccc4c(OCc4ccc(C(=O)NC5CC5)cn4)nn23)no1 [Compound 04, N-cyclopropyl-6-(((3-(5-methylisoxazol-3-yl)-[1,2,4]triazolo[3,4-a]phthalazin-6-yl)oxy)methyl) nicotinamide] | −26.5% | 1.526 | – | –
O=C(NC1CCOCC1)c1ccc(COc2nn3c(-c4cc(CO)on4)nnc3c3ccccc23)nc1 [Compound 44, 6-(((3-(5-(hydroxymethyl)isoxazol-3-yl)-[1,2,4]triazolo[3,4-a]phthalazin-6-yl)oxy)methyl)-N-(tetrahydro-2H-pyran-4-yl)nicotinamide] | −20.8% | 1.196 | – | –
